Source: patent USH505H, “Boron uptake in tumors, cerebrum and blood from [10B]NA4B24H22S2” (The United States of America as represented by the United …, priority 1986, dated 1988)

Tested on: Harding-Passey (HP) melanomas
Test: Boron concentrations in melanoma tumor, blood and cerebrum of mice after intraperitoneal administration (prompt gamma analysis)
Set-up: species or system female BALB/cJ mice
Conditions: mouse, in vivo, ip
Method: Aqueous solutions of [^10 B]Na2 B12 H11 SH or [^10 B]Na4 B24 H22 S2 were infused slowly intraperitoneally [~200 μl capacity osmotic pump, model 2001, Alza Corp., Palo Alto, Calif.] or were injected intraperitoneally promptly into 15-20 g female BALB/cJ mice bearing subcutaneously implanted Harding-Passey (HP) melanomas. In experiment 6 (Table 1), 5.3×10^-3 M Na2 S2 O5 was added to retard oxidation of [B12 H11 SH]^2-. Mice were deeply anesthetized with ether and then killed by exsanguination at times specified in Table 1. The osmotic pumps were designed to function for 219±6 hr, although the precise duration of their infusion in each mouse is unknown.
Tissue and blood specimens in quartz test tubes, with sufficient H2 O added to bring each sample to a total weight of 1.00 g, were analyzed for boron by counting 478 keV gamma photons from the ^10 B(n,αγ)^7 Li reaction during irradiation by slow neutrons.

Na2 B12 H11 SH
Blood boron concentration (34.5 mg/kg, 24 h): 6.3 ± 2.2 μgB/g
Cerebrum boron concentration (34.5 mg/kg, 24 h): 4.9 ± 3.8 μgB/g
Concentration ratio Tumor:Blood (34.5 mg/kg, 24 h): 1.0
Tumor boron concentration (34.5 mg/kg, 24 h): 6.3 ± 2.2 μgB/g
Blood boron concentration (35.4 mg/kg, 6 h): 3.8 ± 9.9 μgB/g
Cerebrum boron concentration (35.4 mg/kg, 6 h): 3.8 ± 3.4 μgB/g
Concentration ratio Tumor:Blood (35.4 mg/kg, 6 h): 2.3
Tumor boron concentration (35.4 mg/kg, 6 h): 8.7 ± 9.9 μgB/g
Blood boron concentration (35.5 mg/kg, 12 h): 5.5 ± 4.8 μgB/g
Cerebrum boron concentration (35.5 mg/kg, 12 h): 0.9 ± 1.6 μgB/g
Concentration ratio Tumor:Blood (35.5 mg/kg, 12 h): 1.0
Tumor boron concentration (35.5 mg/kg, 12 h): 5.5 ± 4.8 μgB/g
Blood boron concentration (187 mg/kg, 190 h): 13.2 ± 6.3 μgB/g
Cerebrum boron concentration (187 mg/kg, 190 h): 7.0 μgB/g
Concentration ratio Tumor:Blood (187 mg/kg, 190 h): 1.0
Tumor boron concentration (187 mg/kg, 190 h): 12.6 ± 1.7 μgB/g
Blood boron concentration (187 mg/kg, 219 h): 4.9 ± 1.1 μgB/g
Cerebrum boron concentration (187 mg/kg, 219 h): 1.0 ± 0.4 μgB/g
Concentration ratio Tumor:Blood (187 mg/kg, 219 h): 1.6
Tumor boron concentration (187 mg/kg, 219 h): 7.9 ± 1.5 μgB/g
Blood boron concentration (195 mg/kg, 219 h): 5.5 ± 3.0 μgB/g
Cerebrum boron concentration (195 mg/kg, 219 h): 1.2 ± 1.0 μgB/g
Concentration ratio Tumor:Blood (195 mg/kg, 219 h): 1.5
Tumor boron concentration (195 mg/kg, 219 h): 8.5 ± 2.9 μgB/g
Blood boron concentration (262 mg/kg, 234 h): 7.7 ± 4.6 μgB/g
Cerebrum boron concentration (262 mg/kg, 234 h): 3.2 ± 0.0 μgB/g
Concentration ratio Tumor:Blood (262 mg/kg, 234 h): 1.8
Tumor boron concentration (262 mg/kg, 234 h): 14.1 ± 1.1 μgB/g
